Experimental data from patent US9434684B2, “Oxime-substituted amide compound and pest control agent” (Nissan Chemical Industries, Ltd., priority 2012, dated 2016).

How the values were obtained:
[1] = tested on: Sclerotinia sclerotiorum; assay: Preventive effect against cucumber stem rot; assay type: in vivo; conditions: 48 h, test solution A 500 ppm, 2 days
Method: (§1) Compounds of the present invention were dissolved in a solvent for emulsion (a mixture of Sorpol (registered trademark) 3005XL (manufactured by Toho Chemical Industry Co., Ltd.): N-methylpyrrolidone:Solvesso (registered trademark) 200 (manufactured by ExxonMobil Chemical) in a ratio of 1:5:2) to prepare 20% emulsifiable concentrates. Then, distilled water was added to dilute the emulsifiable concentrates to the predetermined concentration (500 ppm), and the obtained solutions were used in the following Test Examples 1 to 7. Cucumber (cultivar: Sagami Hanjiro) was planted in 90 cm^3 plastic pots, and in the seed leaf stage, 5 ml per pot of test solutions A of the compounds of the present invention were applied. After drying in air, the pots were put in a plastic container, and agar blocks (diameter: 5 mm) containing Sclerotinia sclerotiorum preliminarily cultivated in a PDA medium were inoculated to the seed leaves of the cucumber treated with the solutions. After the inoculation, the plastic container was covered with a plastic sheet and humidified, and placed at 20° C. for 2 days, whereupon the proportion of the formed lesion in the inoculated leaves was measured to calculate the control value in accordance with the same formula as in Test Example 1. Here, the test was carried out in duplicate.

[2] = tested on: Meloidogyne incognita; assay: Preventive effect on Meloidogyne incognita (garden balsam seedlings, root knot); assay type: in vivo; conditions: 504 h, test solution B 100 ppm, 1 ml per seedling, 3 weeks, read-out: efficacy (damage degree, root knot, relative to non-treated plot)
Method: Compounds of the present invention were dissolved in dimethylsulfoxide to prepare 1% solutions. Then, distilled water was added to dilute the solutions to the predetermined concentration (100 ppm), and the obtained solutions were used in the following Test Examples 8 to 12. 1 ml per seedling of test solutions B of the compounds of the present invention were treated to the bases of garden balsam seedlings (about 2 weeks after budding) planted in a cell tray of which each cell was filled with 10 g of soil. 1 Hour after the application, 1 ml per cell of water containing Meloidogyne incognita 2 L larvae (100 2 L larvae/1 ml) was applied to the bases. The tray was placed in a greenhouse for 3 weeks, and the root knot level formed on the root was determined in accordance with the following damage index and the damage degree to calculate the efficacy (%) relative to the non-treated plot in accordance with the following formula. <Damage Index> 0: No knot observed. 1: Knot observed on a part of the root system. 2: Knot observed on the entire root system. 3: Large knot observed. 4: Large knot observed on the entire root system. [Damage degree]=[Σ(damage index×number of seedlings at each index)/(4×number of seedlings investigated)]×100 Efficacy(%)=[1−(damage degree in treated plot/damage degree in non-treated plot)]×100

[3] = tested on: Botrytis cinerea; assay: Preventive effect against cucumber gray mold (spore inoculation); assay type: in vivo; conditions: 72 h, cucumber leaves, 100 ppm solution (*), 3 days
[4] = tested on: Botrytis cinerea; assay: Preventive effect against cucumber gray mold (mycelium inoculation); assay type: in vivo; conditions: 48 h, 100 ppm solution (*), 2 days
[5] = tested on: Botrytis cinerea; assay: Preventive effect against cucumber gray mold (spore inoculation); assay type: in vivo; conditions: 72 h, cucumber leaves, test solution A 500 ppm, 3 days
Method: Compounds of the present invention were dissolved in a solvent for emulsion (a mixture of Sorpol (registered trademark) 3005XL (manufactured by Toho Chemical Industry Co., Ltd.): N-methylpyrrolidone:Solvesso (registered trademark) 200 (manufactured by ExxonMobil Chemical) in a ratio of 1:5:2) to prepare 20% emulsifiable concentrates. Then, distilled water was added to dilute the emulsifiable concentrates to the predetermined concentration (500 ppm), and the obtained solutions were used in the following Test Examples 1 to 7. Cucumber (cultivar: Sagami Hanjiro) was planted in 90 cm^3 plastic pots, and in the seed leaf stage, 5 ml per pot of test solutions A of the compounds of the present invention were applied. After drying in air, the treated leaves were cut and put in plastic containers. 30 μl of a mixture of a suspension of conidium of Botrytis cinerea and a dissolved PDA medium in a ratio of 1:1 was dropped on each treated leaf and inoculated. After the inoculation, the plastic containers were placed at 20° C. in humid conditions for 3 days, and the proportion of the formed lesion in the inoculated leaves was measured to calculate the control value in accordance with the same formula as in Test Example 1. Here, the test was carried out in duplicate.

[6] = tested on: Botrytis cinerea; assay: Preventive effect against cucumber gray mold (mycelium inoculation); assay type: in vivo; conditions: 48 h, test solution A 500 ppm, 2 days
Method: as §1, with “On the next day,” for “After drying in air,”, “Botrytis cinerea” for “Sclerotinia sclerotiorum”

[7] = tested on: Phaeosphaeria nodorum (synonym: Septoria nodorum); assay: Preventive effect against wheat glume blotch; assay type: in vivo; conditions: Parastagonospora nodorum, 192 h, test solution A 500 ppm, 2 + 6 days
Method: (§2) Compounds of the present invention were dissolved in a solvent for emulsion (a mixture of Sorpol (registered trademark) 3005XL (manufactured by Toho Chemical Industry Co., Ltd.): N-methylpyrrolidone:Solvesso (registered trademark) 200 (manufactured by ExxonMobil Chemical) in a ratio of 1:5:2) to prepare 20% emulsifiable concentrates. Then, distilled water was added to dilute the emulsifiable concentrates to the predetermined concentration (500 ppm), and the obtained solutions were used in the following Test Examples 1 to 7. To wheat (cultivar: Haruyutaka) in 1.3-leaf stage planted in 90 cm^3 plastic pots, 5 ml per pot of test solutions A of the compounds of the present invention were applied. On the next day, a suspension of conidium of Phaeosphaeria nodorum synonym: Septoria nodorum) was spray-inoculated to the wheat, and the pots were placed in an inoculation chamber at 20° C. under a humidity of 100% for 2 days. Then, the pots were placed in an air-conditioned greenhouse (20° C.) for 6 days. The proportion of the formed lesion in the inoculated leaves was measured to calculate the control value in accordance with the same formula as in Test Example 1. Here, the test was carried out in duplicate.

[8] = tested on: Puccinia recondita; assay: Preventive effect against wheat brown leaf rust; assay type: in vivo; conditions: 216 h, test solution A 500 ppm, 1 + 8 days
Method: as §2, with “Norin-61-go)” for “Haruyutaka)”, “spore” for “conidium”, “Puccinia recondita” for “Phaeosphaeria nodorum synonym: Septoria nodorum)”, “1 day.” for “2 days.”, “8” for “6”

Row | SMILES | pest or weed control at 500 µg/mL [1] [%] | pest or weed control at 100 µg/mL [2] [%] | melting point [°C] | pest or weed control at 100 ppm [3] [%] | pest or weed control at 100 ppm [4] [%] | pest or weed control at 500 µg/mL [5] [%] | pest or weed control at 500 µg/mL [6] [%] | pest or weed control at 500 µg/mL [7] [%] | pest or weed control at 500 µg/mL [8] [%]
1 | CO/N=C(/CNC(=O)c1ccccc1C(F)(F)F)c1ncc(Cl)cc1Cl [Compound No. 2-114, (Z)—N-[2-(3,5-dichloropyridin-2-yl)-2-(methoxyimino)ethyl]-2-(trifluoromethyl)benzamide] | ≥ 70 | ≥ 50 | 88 to 89 | ≥ 70 | ≥ 70 | – | – | – | –
2 | CON=C(CN(SC(Cl)(Cl)Cl)C(=O)c1ccccc1C(F)(F)F)c1ncc(Cl)cc1Cl [4-015] | ≥ 70 | – | – | – | – | ≥ 70 | ≥ 70 | – | –
3 | CON=C(CN(C(=O)c1c(C(F)(F)F)nn(C)c1F)C1CC1)c1ncc(Cl)cc1Cl [Compound No. 17-009, N-cyclopropyl-N-[2-(3,5-dichloropyridin-2-yl)-2-(methoxyimino)ethyl]-5-fluoro-1-methyl-3-trifluoromethyl-1H-pyrazole-4-carboxamide] | ≥ 70 | – | 95 to 97 | – | – | ≥ 70 | – | ≥ 70 | –
4 | CON=C(CN(C(C)=O)C(=O)c1ccccc1C(F)(F)F)c1ncc(Cl)cc1Cl [4-013] | ≥ 70 | – | – | – | – | ≥ 70 | ≥ 70 | – | –
5 | CON=C(c1ncc(Cl)cc1Cl)C(C)NC(=O)c1ccccc1C(F)(F)F (centres unmarked) [Compound No. 2-115, N-[2-(3,5-dichloropyridin-2-yl)-2-methoxyimino-1-methylethyl]-2-(trifluoromethyl)benzamide] | ≥ 70 | ≥ 50 | – | – | – | ≥ 70 | ≥ 70 | ≥ 70 | ≥ 70
6 | CCO/N=C(/CNC(=O)c1ccccc1C(F)(F)F)c1ncc(Cl)cc1Cl [Compound No. 2-120, (Z)—N-[2-(3,5-dichloropyridin-2-yl)-2-(ethoxyimino)ethyl]-2-(trifluoromethyl)benzamide] | – | ≥ 50 | 84 to 86 | – | – | ≥ 70 | ≥ 70 | ≥ 70 | ≥ 70
7 | CC(C)ON=C(CNC(=O)c1ccccc1C(F)(F)F)c1ncc(Cl)nc1Cl [24-001] | ≥ 70 | – | – | – | – | ≥ 70 | ≥ 70 | – | –
8 | CO/N=C(\c1ncc(Cl)cc1Cl)C(C)NC(=O)c1ccccc1C(F)(F)F (centres unmarked) [Compound No. 2-117, (Z)—N-[2-(3,5-dichloropyridin-2-yl)-2-methoxyimino-1-methylethyl]-2-(trifluoromethyl)benzamide] | – | ≥ 50 | 104 to 105 | – | – | ≥ 70 | ≥ 70 | – | ≥ 70
9 | CC(C)(C)ON=C(CNC(=O)c1nccnc1C(F)(F)F)c1ncc(Cl)cc1Cl (single isomer, unassigned) [9-006, N-[2-(3,5-dichloropyridin-2-yl)-2-(tert-butoxyimino)ethyl]-3-(trifluoromethyl)pyrazine-2-carboxamide] | ≥ 70 | – | – | – | – | – | ≥ 70 | – | –
10 | CCCO/N=C(/CNC(=O)c1ccccc1C(F)(F)F)c1ncc(Cl)cc1Cl [Compound No. 2-126, (Z)—N-[2-(3,5-dichloropyridin-2-yl)-2-(propoxyimino)ethyl]-2-(trifluoromethyl)benzamide] | – | ≥ 50 | 80 to 83 | – | – | – | – | – | ≥ 70
11 | CON=C(CNC(=S)c1ccccc1C(F)(F)F)c1ncc(Br)cc1Cl [Compound No. 5-001, N-[2-(5-bromo-3-chloropyridin-2-yl)-2-(methoxyimino)ethyl]-2-(trifluoromethyl)benzthioamide] | ≥ 70 | – | – | – | – | ≥ 70 | ≥ 70 | ≥ 70 | ≥ 70
12 | CCO/N=C(\c1ncc(Cl)cc1Cl)[C@H](C)NC(=O)c1ccccc1C(F)(F)F [2-124, (S)—N-[2-(3,5-dichloropyridin-2-yl)-2-[(Z)-ethoxyimino]-1-methylethyl]-2-(trifluoromethyl)benzamide] | ≥ 70 | – | – | – | – | ≥ 70 | ≥ 70 | ≥ 70 | ≥ 70
